Laboratory results from US20190119282A1, “IMIDAZOPYRIDAZINES USEFUL AS INHIBITORS OF THE PAR-2 SIGNALING PATHWAY” (Vertex Pharmaceuticals Incorporated, priority 2013, published 2019).

Key:
[1] = system: Thrombin-stimulated Ca2+ response in HT-29 cells; assay: Ca FLIPR TETRA assay, ANTAGONIST mode, stimulation with 1 U/mL Thrombin; format: cell-based, human; conditions: for IC50: Homo sapiens, HT-29 cells
Method: (§1) Example 60: Protocol for Testing PAR2 Compounds in ANTAGONIST Mode Using the Ca FLIPR^TETRA Assay (384 Well)
(§2) 23000 HT-29 cells (ATCC# HTB-38) were plated in 384-well black, transparent-flat bottom plates and incubated in 25 uL of 1% FBS/McCoy's media ON at 37° C. under an atmosphere of 5% CO2. The following day, 25 uL FLIPR calcium 5 Molecular Devices assay reagent (Cat: R-8186) was added. Plates were incubated at 37° C. and r. t. for 45 min and 15 min, respectively. Compounds dilutions were prepared in 100% DMSO using a Biomek FX and diluted 20-fold in HBSS and then 5.5 uL was added directly to the cells by the FLIPR^TETRA (10× dilution) using FLIPR Tetra Pipette tips, black, non-sterile, 384 Molecular Devices (Cat: 9000-0764).
(§3) A first read was performed to determine whether the test compounds on their own can activate Ca2+ responses.
(§4) The cells were incubated with the compounds for 30 min at r. t. and then read in ANTAGONIST mode in the same plate by stimulating with 6.2 uL of a fixed concentration of the activator: final concentrations: 8 μM SLIGKV, 1 U/mL Thrombin, 3.1 U/mL trypsin, or 0.6 μM UTP.

[2] = target: T1, PAR2 (HT-29 cells, SLIGKV activation) (Homo sapiens, UniProt P55085); assay: Ca FLIPR TETRA assay, ANTAGONIST mode, stimulation with 8 μM SLIGKV; format: cell-based; conditions: HT-29 cells
T1 construct: host or cells: HT-29 cells
T1 sequence (P55085 26-397): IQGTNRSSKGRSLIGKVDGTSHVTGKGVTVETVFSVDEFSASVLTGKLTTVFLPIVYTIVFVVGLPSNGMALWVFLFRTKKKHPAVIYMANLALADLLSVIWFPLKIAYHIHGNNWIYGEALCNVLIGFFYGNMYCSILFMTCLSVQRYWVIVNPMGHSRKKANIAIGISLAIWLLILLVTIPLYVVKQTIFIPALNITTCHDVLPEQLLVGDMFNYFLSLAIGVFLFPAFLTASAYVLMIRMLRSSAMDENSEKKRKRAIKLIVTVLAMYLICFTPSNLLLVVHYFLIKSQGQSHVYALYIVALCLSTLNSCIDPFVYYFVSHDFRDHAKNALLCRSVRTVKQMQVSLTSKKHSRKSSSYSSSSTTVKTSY
Method: as §1, §2, §3, §4

[3] = target: T2, PAR2 (HT-29 cells, trypsin activation) (Homo sapiens, UniProt P55085); assay: Ca FLIPR TETRA assay, ANTAGONIST mode, stimulation with 3.1 U/mL trypsin; format: cell-based; conditions: HT-29 cells
T2 construct: host or cells: HT-29 cells
T2 sequence (P55085 26-397): T1 sequence (P55085 26-397)
Method: as §1, §2, §3, §4

[4] = system: UTP-stimulated Ca2+ response in HT-29 cells; assay: Ca FLIPR TETRA assay, ANTAGONIST mode, stimulation with 0.6 μM UTP; format: cell-based, human; conditions: for IC50: Homo sapiens, HT-29 cells
Method: as §1, §2, §3, §4

[5] = stimulation with 1 U/mL Thrombin
[6] = stimulation with 3.1 U/mL trypsin
[7] = antagonist mode, stimulation with 1 U/mL Thrombin
[8] = antagonist mode, stimulation with 8 μM SLIGKV
[9] = antagonist mode, stimulation with 3.1 U/mL trypsin
[10] = antagonist mode, stimulation with 0.6 μM UTP

| SMILES | IC50 [1, 5] | IC50 ([2]; stimulation with 8 μM SLIGKV) | IC50 [3, 6] | IC50 ([4]; stimulation with 0.6 μM UTP) | IC50 [1, 7] | IC50 [2, 8] | IC50 [3, 9] | IC50 [4, 10] | also measured |
| --- | --- | --- | --- | --- | --- | --- | --- | --- | --- |
| CCNC(=O)OC1CCN(C(=O)c2cn3nc(-c4ccc(F)cc4)cc(C)c3n2)CC1 [Compound I-63] | 35000 nM | 1000 nM | 4100 nM | 37000 nM |  |  |  |  |  |
| CC(C)c1cc(-c2ccc(F)cc2)nn2cc(C(=O)N3CCN(C(=O)[C@H](O)CC(C)(C)C)[C@@H](C)C3)nc12 [Compound I-97] | > 5000 nM | 0.7 nM | 0.6 nM | > 5000 nM |  |  |  |  |  |
| C[C@H]1CN(C(=O)c2cn3nc(-c4ccc(F)cc4)cc(C(F)(F)F)c3n2)CCN1C(=O)[C@@H](CC1CCCCC1)NC(=O)OC(C)(C)C [Compound I-15, tert-Butyl N-[(1R)-1-(cyclohexylmethyl)-2-[(2S)-4-[6-(4-fluorophenyl)-8-(trifluoromethyl)imidazo[1,2-b]pyridazine-2-carbonyl]-2-methyl-piperazin-1-yl]-2-oxo-ethyl]carbamate] | > 50000 nM | 47 nM | 58 nM | > 50000 nM |  |  |  |  |  |
| CC(C)c1cc(-c2ccc(F)cc2)nn2cc(C(=O)N3CCN(C(=O)C(O)c4ccccc4)[C@@H](C)C3)nc12 (some centres unmarked) [Compound I-117] | 9600 nM | 0.3 nM | 0.9 nM | 8100 nM |  |  |  |  |  |
| CC(C)c1cc(-c2ccc(F)cc2)nn2cc(C(=O)N3CCN(C(=O)c4ncccn4)CC3(C)C)nc12 [Compound I-323] |  |  |  |  | > 1000 nM | 20.5 nM | 55.5 nM | > 1000 nM |  |
| CC(C)CC(O)C(=O)N1CCN(C(=O)c2cn3nc(-c4ccc(F)cc4)cc(C(C)C)c3n2)C[C@@H]1C (some centres unmarked) [Compound I-109] | 11000 nM | 0.9 nM | 4 nM | 10000 nM |  |  |  |  |  |
| CC(C)c1cc(-c2ccc(F)cc2)nn2cc(C(=O)N3CCN(C(=O)c4cncnc4)CC3(C)C)nc12 [Compound I-322] |  |  |  |  | > 1000 nM | 41.5 nM | 69 nM | > 1000 nM |  |
| Cc1cc(-c2ccc(F)cc2)nn2cc(C(=O)N3CCN(C(=O)[C@H](O)C(C)(C)C)[C@@H](C)C3)nc12 [Compound I-153] | 19000 nM | 250 nM | 1450 nM | 22000 nM |  |  |  |  |  |
| CC(C)c1cc(-c2ccc(F)cc2)nn2cc(C(=O)N3CCN(C(=O)CC4CCCC4)[C@@H](C)C3)nc12 [Compound I-121] | 9200 nM | 4 nM | 7 nM | > 500 nM |  |  |  |  |  |
| Cc1nnc(C(=O)N2CCN(C(=O)c3cn4nc(-c5ccc(F)c(C)c5)cc(C(C)C)c4n3)C(C)(C)C2)o1 [Compound I-344] |  |  |  |  | > 1000 nM | 15.4 nM | 15.8 nM | > 1000 nM |  |
| C[C@H]1CN(C(=O)c2cn3nc(-c4ccc(F)cc4)cc(C(F)(F)F)c3n2)CCN1C(=O)C(O)Cc1ccccc1 (some centres unmarked) [Compound I-92] | > 5000 nM | 10 nM | 15 nM | > 5000 nM |  |  |  |  |  |
| CC(C)(C)c1cc(-c2ccc(F)cc2)nn2cc(C(=O)N3CN(C(C)(C)C)C(=O)C3(C)C)nc12 [Compound I-564] |  |  |  |  |  |  |  |  | IC50 ([1]; antagonist mode, 1 U/mL Thrombin): > 1000 nM; IC50 ([2]; antagonist mode, 8 μM SLIGKV): 125 nM; IC50 ([3]; antagonist mode, 3.1 U/mL trypsin): 193 nM; IC50 ([4]; antagonist mode, 0.6 μM UTP): > 1000 nM |
| CC1(C)CN(C(=O)c2nc[nH]n2)CCN1C(=O)c1cn2nc(-c3ccc(F)cc3)cc(C(F)(F)F)c2n1 [Compound I-269] |  |  |  |  | > 1000 nM | 90.5 nM | 120 nM | > 1000 nM |  |
| CCS(=O)(=O)N1CCN(C(=O)c2cn3nc(-c4ccc(F)cc4)cc(C(F)(F)F)c3n2)CC1 [Compound I-57] | > 50000 nM | 590 nM | 48000 nM | > 50000 nM |  |  |  |  |  |
| CC(C)c1cc(-c2ccc(C#N)cc2)nn2cc(C(=O)N3CCN(C(=O)C(C)(C)O)CC3(C)C)nc12 [Compound I-220] |  |  |  |  | > 1000 nM | 760 nM | 880 nM | > 1000 nM |  |
| CC(C)c1cc(-c2ccc(F)cc2)nn2cc(C(=O)N3CCN(C(=O)CC(C)(C)C)[C@@H](C)C3)nc12 [Compound I-130] | 4500 nM | 2 nM | 6 nM | 5000 nM |  |  |  |  |  |
| CC(C)c1cc(-c2ccc(F)cc2)nn2cc(C(=O)N3CCN(C(=O)OC(C)(C)C)[C@@H](C)C3)nc12 [Compound I-96] |  | 44 nM | 150 nM |  |  |  |  |  | Thrombin % @ concentration ([1]; @ 50 (μM)): 52% @ 50; UTP % @ concentration ([4]; @ 50 (μM)): 66% @ 50 |
| C=CC(=O)N1CCN(C(=O)c2cn3nc(-c4ccc(F)cc4)cc(C(C)C)c3n2)C[C@@H]1C [Compound I-17, 1-[(2S)-4-[6-(4-Fluorophenyl)-8-isopropyl-imidazo[1,2-b]pyridazine-2-carbonyl]-2-methyl-piperazin-1-yl]prop-2-en-1-one] | 20000 nM | 41 nM | 780 nM | 19000 nM |  |  |  |  |  |
| Cc1ccc(-c2cc(C(C)C)c3nc(C(=O)N4CCN(C(=O)c5nnc(C)o5)CC4(C)C)cn3n2)cc1 [Compound I-332] |  |  |  |  | > 1000 nM | 13.3 nM | 11.5 nM | > 1000 nM |  |

Further lines, with some results ahead:

| IC50 [1, 5] | IC50 ([2]; stimulation with 8 μM SLIGKV) | IC50 [3, 6] | IC50 ([4]; stimulation with 0.6 μM UTP) | IC50 [1, 7] | IC50 [2, 8] | IC50 [3, 9] | IC50 [4, 10] | SMILES | also measured |
| --- | --- | --- | --- | --- | --- | --- | --- | --- | --- |
|  |  |  |  | > 1000 nM | 0.6 nM | 0.6 nM | > 1000 nM | Cc1nc(C(=O)N2CCN(C(=O)c3cn4nc(-c5ccc(C)c(F)c5)cc(C(C)(C)C)c4n3)C(C)(C)C2)n[nH]1 [Compound I-416] |  |
|  |  |  |  | > 1000 nM | 24 nM | 49.5 nM | > 1000 nM | CC(C)c1cc(-c2ccc(Cl)cc2)nn2cc(C(=O)N3CCN(C(=O)[C@H]4C[C@@H](C(=O)O)C4)CC3(C)C)nc12 [Compound I-553] |  |
|  |  |  |  | > 1000 nM | 3.1 nM | 4.9 nM | > 1000 nM | Cc1cc(-c2cc(C(C)C)c3nc(C(=O)N4CCNC(=O)C4(C)C)cn3n2)ccc1Cl [Compound I-507] |  |
|  |  |  |  | > 1000 nM | 25.7 nM | 31.7 nM | > 1000 nM | Cc1cc(-c2cc(C(C)C)c3nc(C(=O)N4CCN(CO)C(=O)C4(C)C)cn3n2)ccc1F [Compound I-470] |  |
|  |  |  |  | > 1000 nM | 0.2 nM | 0.3 nM | > 1000 nM | CC(C)c1cc(-c2ccc(Cl)cc2)nn2cc(C(=O)N3CCN(C(=O)[C@H]4C[C@](O)(C(F)(F)F)C4)CC3(C)C)nc12 [Compound I-542] |  |
|  |  |  |  | > 1000 nM | 57 nM | 68.5 nM | > 1000 nM | CC(C)(C)c1cc(-c2ccc(F)cc2)nn2cc(C(=O)N3CCN(CC(=O)O)C(=O)C3(C)C)nc12 [Compound I-518] |  |
|  |  |  |  | > 1000 nM | 1.4 nM | 3.1 nM | > 1000 nM | Cc1cc(-c2cc(C(C)(C)C)c3nc(C(=O)N4CCN(C(=O)c5ncccn5)CC4(C)C)cn3n2)ccc1F [Compound I-387] |  |
|  |  |  |  | > 1000 nM | 660 nM | 965 nM | > 1000 nM | CC(C)c1cc(-c2ccc(F)c(C3CC3)c2)nn2cc(C(=O)N3CCNC(=O)C3(C)C)nc12 [Compound I-476] |  |
|  |  |  |  | > 1000 nM | 0.7 nM | 1.9 nM | > 1000 nM | Cc1cc(C(=O)N2CCN(C(=O)c3cn4nc(-c5ccc(F)c(Cl)c5)cc(C(C)(C)C)c4n3)C(C)(C)C2)[nH]n1 [Compound I-466] |  |
|  |  |  |  | > 1000 nM | 1.5 nM | 1.2 nM | > 1000 nM | Cc1ccc(-c2cc(C(C)(C)C)c3nc(C(=O)N4CCN(C(=O)c5ccccn5)CC4(C)C)cn3n2)cc1F [Compound I-425] |  |
|  |  |  |  | > 1000 nM | 0.8 nM | 1.3 nM | > 1000 nM | COC(=O)[C@H]1CC[C@@H](C(=O)N2CCN(C(=O)c3cn4nc(-c5ccc(Cl)cc5)cc(C(C)C)c4n3)C(C)(C)C2)CC1 [Compound I-539] |  |
|  |  |  |  | > 1000 nM | 5.6 nM | 7.4 nM | > 1000 nM | CC(C)c1cc(-c2ccc(F)c(Cl)c2)nn2cc(C(=O)N3CCN(C(=O)[C@H]4C[C@@H](O)C4)CC3(C)C)nc12 [Compound I-498] |  |
|  |  |  |  | > 1000 nM | 2.4 nM | 3.2 nM | > 1000 nM | CC(C)(C)c1cc(-c2ccc(Cl)cc2)nn2cc(C(=O)N3CCN(C(=O)[C@H]4CC[C@H](C(=O)O)CC4)CC3(C)C)nc12 [Compound I-491] |  |
